Test results taken from the supplement of paper PMC10307832.

Key:
Experiment in all cases: relative viability (nuclei count vs DMSO), 5 days (fraction); higher = more cells survive
[1] = compound: C1CSC2=C(C(=O)N1)SC3=C2C=C(C=C3)O [kb NB 142-70] + CC1(C)CCC(c2ccc(Cl)cc2)=C(CN2CCN(c3ccc(C(=O)NS(=O)(=O)c4ccc(N[C@H](CCN5CCOCC5)CSc5ccccc5)c(S(=O)(=O)C(F)(F)F)c4)cc3)CC2)C1 [Navitoclax] (partner 0.5 µM)
How it was run: (§1)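 Lung cancer cell lines were pin-tool dosed in 1536-well plates on the day after seeding, with either a lone drug or a fixed anchor-drug dose plus five library-drug doses (not always all listed) in √10 steps. Nuclei were counted on 4× images after 5 days. Relative viability is the ratio of treated-well to vehicle-well nuclei counts, with each value a median of duplicate plates.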

[2] = compound: C1CSC2=C(C(=O)N1)SC3=C2C=C(C=C3)O [kb NB 142-70] + CS(=O)(=O)N1CCN(Cc2cc3nc(-c4cccc5[nH]ncc45)nc(N4CCOCC4)c3s2)CC1 [Pictilisib] (partner 1 µM)
How it was run: as §1

[3] = compound: C1CSC2=C(C(=O)N1)SC3=C2C=C(C=C3)O [kb NB 142-70] + N=C(N)NC(=N)NCCc1ccccc1 [Phenformin] (partner 250 µM)
How it was run: as §1

[4] = compound: NCC(=O)Nc1ccc(-n2nc(C(F)(F)F)cc2-c2ccc3c(ccc4ccccc43)c2)cc1 + CCNC(=O)c1noc(-c2cc(C(C)C)c(O)cc2O)c1-c1ccc(CN2CCOCC2)cc1 [Luminespib] (partner 0.01 µM)
How it was run: as §1

[5] = compound: NCC(=O)Nc1ccc(-n2nc(C(F)(F)F)cc2-c2ccc3c(ccc4ccccc43)c2)cc1 + Cc1nc(NC(=O)N2CCC[C@H]2C(N)=O)sc1-c1ccnc(C(C)(C)C(F)(F)F)c1 [Alpelisib] (partner 2 µM)
How it was run: as §1

| Cell Line | relative viability ([1]; first compound 0.1 µM) | relative viability ([1]; first compound 1 µM) | relative viability ([1]; first compound 3.162 µM) | relative viability ([2]; first compound 0.1 µM) | relative viability ([2]; first compound 1 µM) | relative viability ([2]; first compound 3.162 µM) | relative viability ([3]; first compound 0.1 µM) | relative viability ([3]; first compound 1 µM) | relative viability ([3]; first compound 3.162 µM) | relative viability ([4]; first compound 0.02 µM) | relative viability ([4]; first compound 0.06325 µM) | relative viability ([4]; first compound 0.2 µM) | relative viability ([4]; first compound 0.6325 µM) | relative viability ([4]; first compound 2 µM) | relative viability ([5]; first compound 0.02 µM) | relative viability ([5]; first compound 0.06325 µM) | relative viability ([5]; first compound 0.2 µM) | relative viability ([5]; first compound 0.6325 µM) | relative viability ([5]; first compound 2 µM) |
| --- | --- | --- | --- | --- | --- | --- | --- | --- | --- | --- | --- | --- | --- | --- | --- | --- | --- | --- | --- |
| LU99A | 0.845 | 0.816 | 0.598 | 0.305 | 0.294 | 0.298 | 0.789 | 0.666 | 0.722 | 0.261 | 0.249 | 0.229 | 0.238 | 0.19 | 0.563 | 0.489 | 0.56 | 0.562 | 0.456 |
| LXF-289 | 0.938 | 0.986 | 0.942 | 0.739 | 0.737 | 0.749 | 0.526 | 0.526 | 0.457 | 0.686 | 0.67 | 0.633 | 0.637 | 0.702 | 1.08 | 1.08 | 1.09 | 1.06 | 1.01 |
| NCI-H23 | 0.775 | 0.735 | 0.331 | 0.517 | 0.42 | 0.293 | 0.794 | 0.732 | 0.53 |  | 0.217 | 0.216 | 0.222 | 0.234 | 0.59 | 0.774 | 0.865 | 0.806 | 0.725 |
| NCI-H322M | 1.2 | 1.15 | 1.11 | 0.54 | 0.561 | 0.504 | 0.755 | 0.795 | 0.86 | 0.919 | 0.946 | 0.895 | 0.917 | 0.855 | 0.756 | 0.772 | 0.824 | 0.657 | 0.831 |
| NCI-H441 | 0.683 | 0.369 | 0.34 | 0.497 | 0.429 | 0.305 | 0.881 | 0.894 | 0.633 | 0.334 | 0.391 | 0.347 | 0.296 | 0.397 | 0.906 | 0.715 | 0.869 | 1.01 | 0.654 |
| NCI-H460 | 0.978 | 1.25 | 0.305 | 0.363 | 0.323 | 0.274 | 0.55 | 0.596 | 0.347 | 0.032 | 0.0402 | 0.0319 | 0.0282 | 0.0345 | 0.576 | 0.425 | 0.486 | 0.491 | 0.449 |
| NCI-H520 | 1.07 | 1.19 | 0.482 | 0.297 | 0.282 | 0.165 | 0.57 | 0.515 | 0.324 | 0.193 | 0.179 | 0.198 | 0.239 | 0.229 | 0.979 | 0.982 | 1.04 | 0.92 | 0.896 |
| NCI-H596 | 1 | 0.982 | 0.866 | 0.399 | 0.351 | 0.352 | 0.888 | 0.77 | 0.822 | 1.14 | 1.02 | 1.06 | 0.99 | 0.978 | 0.63 | 0.5 | 0.483 | 0.553 | 0.505 |
| NCI-H647 | 1.16 | 1.19 | 0.842 | 0.497 | 0.474 | 0.408 | 0.502 | 0.54 | 0.44 | 0.26 | 0.151 | 0.146 | 0.181 | 0.252 | 1.31 | 1.15 | 1.21 | 1.12 | 0.982 |
| NCI-H727 | 0.522 | 0.397 | 0.263 | 0.425 | 0.469 | 0.346 | 0.585 | 0.714 | 0.605 | 0.325 | 0.352 | 0.322 | 0.32 | 0.401 | 0.636 | 0.561 | 0.614 | 0.531 | 0.686 |
| NCI-H838 | 1.19 | 1.14 | 1 | 0.444 | 0.447 | 0.424 | 0.561 | 0.575 | 0.571 | 0.328 | 0.31 | 0.372 | 0.429 | 0.382 | 0.971 | 1.01 | 1.12 | 0.916 | 0.933 |
| NCI-H1355 | 1.02 | 0.881 | 0.936 | 0.491 | 0.428 | 0.425 | 0.485 | 0.451 | 0.453 | 0.668 | 0.765 | 0.72 | 0.791 | 0.752 | 0.781 | 0.949 | 0.825 | 0.838 | 0.865 |
| NCI-H1395 | 1.26 | 1.23 | 0.826 | 0.901 | 0.687 | 0.6 | 0.45 | 0.484 | 0.434 | 0.615 | 0.78 | 0.678 | 0.655 | 0.617 | 1.04 | 1.1 | 1.3 | 1.13 | 1.05 |
| NCI-H1437 | 1.05 | 1.13 | 1.02 | 0.406 | 0.459 | 0.37 | 0.308 | 0.292 | 0.262 | 1.11 | 0.991 | 1.13 | 1.12 | 1.05 | 0.944 | 0.995 | 0.999 | 0.913 | 0.918 |
| NCI-H1651 | 1.07 | 1.03 | 0.39 | 0.563 | 0.497 | 0.344 | 0.327 | 0.321 | 0.205 | 0.8 | 0.965 | 0.872 | 0.81 | 0.861 | 0.927 | 0.964 | 0.969 | 0.847 | 0.941 |
| NCI-H1666 | 1.08 | 1.04 | 0.858 | 0.405 | 0.346 | 0.204 | 0.558 | 0.526 | 0.467 | 0.982 | 1.06 | 0.925 | 1.07 | 0.93 | 1.07 | 0.869 | 0.852 | 0.937 | 1.09 |
